Reference: patent US20120016010A1, “RNA Interference Mediated Inhibition of BTB and CNC Homology 1, Basic Leucine Zipper Transcription Factor 1 (BACH1) Gene Expression Using Short Interfering Nucleic Acid (siNA)” (Merck Sharp & Dohme Corp, priority 2009, published 2012)

How the values were obtained:
[1] = test system: cigarette smoke-induced lung destruction; conditions: Sussan et al (2009); cited from earlier work
[2] = test system: Heme Oxygenase-1 (HO-1) protein; test: HO-1 protein expression by Western Blot in airway epithelial cells from a COPD subject; format: cell-based, human; conditions: FIG. 13, positive controls, 18-hour treatment period
Protocol: Human airway epithelial cells were obtained by bronchoscopy from a subject with COPD (35-pack years). The cells were seeded at a density of 1×10^5 cells in a 24-well plate and incubated at 37° C. and 5% CO2 overnight. […] Whole cell lysates were created to detect Heme Oxygenase-1 (HO-1) protein expression via Western Blot.
Whole cell lysates were quantified and 5 micrograms of protein per lane were loaded into a 12.5% Tris-HCL gel. A 1:5000 dilution of Anti-Human Heme Oxygenase-1 polyclonal antibody (Assay Designs) was used to detect HO-1 protein levels. The blot was stripped and reprobed with a beta actin antibody to confirm equal loading.

Row | Compound | lung oxidative stress markers, alveolar cell apoptosis and the subsequent lung destruction, and pulmonary hypertension [1] | HO-1 protein expression [2]
1 | CC1(C)CC[C@]2(C(=O)n3ccnc3)CC[C@]3(C)[C@H](C(=O)C=C4[C@@]5(C)C=C(C#N)C(=O)C(C)(C)[C@@H]5CC[C@]43C)[C@@H]2C1 [CDDO-Im] | significantly reduce | –
2 | C[S+]([O-])CCCCN=C=S (stereo not drawn) [Sulforaphane] | – | increased HO-1 protein expression
3 | hemin | – | increased HO-1 protein expression
